“And” between values parts separate entries of the source, which are not always exact repeats. Equal entries are not always repeated. Inconclusive results and toxic doses are left out. How the source made its calls: active means survival T/C of 150% or more; inactive means T/C below 125% in these data. Numbered stars: 1 amine (or outer) side, 2 acyl side, 3 side chain; on linkers, the order of the positions; unused ones are H or OH. Peptide text beside a SMILES is read from it. γGlu = O=C(O)[CH](CCC(=O)[*:2])N[*:1]
System: BDF1 mice, B16 melanoma ip, median survival T/C
Assay: NCI In Vivo Anticancer Drug Screen. Data for tumor model B16 Melanoma (intraperitoneal) in B6D2F1 (BDF1) mice
Settings: endpoint: median survival time, higher = longer survival
Outline: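 Each result divides a survival or tumor-size measurement in the compound-treated group by the same measurement in the vehicle group.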

[1] = dose: 12.5 mg/kg/injection, schedule: Q01DX009 (ip), vehicle: saline
[2] = dose: 25.0 mg/kg/injection, schedule: Q01DX009 (ip), vehicle: saline
[3] = dose: 50.0 mg/kg/injection, schedule: Q01DX009 (ip), vehicle: saline
[4] = dose: 100.0 mg/kg/injection, schedule: Q01DX009 (ip), vehicle: saline
[5] = dose: 200.0 mg/kg/injection, schedule: Q01DX009 (ip), vehicle: saline
[6] = dose: 6.25 mg/kg/injection, schedule: Q01DX009 (ip), vehicle: saline with Tween-80
[7] = dose: 12.5 mg/kg/injection, schedule: Q01DX009 (ip), vehicle: saline with Tween-80
[8] = dose: 25.0 mg/kg/injection, schedule: Q01DX009 (ip), vehicle: saline with Tween-80
[9] = dose: 400.0 mg/kg/injection, schedule: Q04DX003 (ip), vehicle: saline
[10] = dose: 100.0 mg/kg/injection, schedule: Q04DX003 (ip), vehicle: Klucel (hydroxypropylcellulose) (HPC)
[11] = dose: 200.0 mg/kg/injection, schedule: Q04DX003 (ip), vehicle: Klucel (hydroxypropylcellulose) (HPC)
[12] = dose: 400.0 mg/kg/injection, schedule: Q04DX003 (ip), vehicle: Klucel (hydroxypropylcellulose) (HPC)
[13] = dose: 12.5 mg/kg/injection, schedule: Q01DX009 (ip), vehicle: Klucel (hydroxypropylcellulose) (HPC)
[14] = dose: 25.0 mg/kg/injection, schedule: Q01DX009 (ip), vehicle: Klucel (hydroxypropylcellulose) (HPC)
[15] = dose: 100.0 mg/kg/injection, schedule: Q01DX009 (ip), vehicle: saline with Tween-80
[16] = dose: 50.0 mg/kg/injection, schedule: Q01DX009 (ip), vehicle: Klucel (hydroxypropylcellulose) (HPC)
[17] = dose: 50.0 mg/kg/injection, schedule: Q01DX009 (ip), vehicle: saline with Tween-80

Measured: T/C

c1ccc(C2CN3CCSC3=N2)cc1 (centres undefined)
inactive: dose: 1.56 mg/kg/injection, schedule: Q01DX009 (ip), vehicle: saline 103 % of control | dose: 3.12 mg/kg/injection, schedule: Q01DX009 (ip), vehicle: saline 104 % of control | dose: 6.25 mg/kg/injection, schedule: Q01DX009 (ip), vehicle: saline 96 % of control | [1] 94 % of control | [2] 100 % of control

Cn1c(=O)c2c(ncn2C)n(C)c1=O
inactive: [3] 116 % of control | [4] 103 % of control | [5] 109 % of control

COc1cc(O)c2c(c1)Cc1cc(C)cc(O)c1C2=O
inactive: [6] 93 % of control | [7] 98 % of control | [8] 98 % of control

CCCCCCCCCC(=O)CCCC
inactive: dose: 100.0 mg/kg/injection, schedule: Q01DX009 (ip), vehicle: other 94 % of control | dose: 200.0 mg/kg/injection, schedule: Q01DX009 (ip), vehicle: other 92 % of control

Cc1cc(OCc2nc(N)nc(N)c2-c2ccc(Cl)c(Cl)c2)ccc1NS(=O)(=O)c1cccc(S(=O)(=O)F)c1
inactive: dose: 117.0 mg/kg/injection, schedule: Q04DX003 (ip), vehicle: saline 122 % of control | [9] 117 % of control

CCC(C)C(C)(COC(N)=O)COC(N)=O (centres undefined)
inactive: [10] 97 % of control | [11] 102 % of control | [12] 105 % of control

CC1=CC(=O)[C@@H](O)[C@]2(C)[C@H]3[C@@]4(O)OC[C@]35[C@H]([C@@H](C)[C@H]4O)[C@@H](O)C(=O)O[C@@H]5C[C@@H]12
inactive: dose: 0.75 mg/kg/injection, schedule: Q01DX009 (ip), vehicle: saline 107 % of control | dose: 1.5 mg/kg/injection, schedule: Q01DX009 (ip), vehicle: saline 109 % of control | dose: 3.0 mg/kg/injection, schedule: Q01DX009 (ip), vehicle: saline 117 % of control | dose: 6.0 mg/kg/injection, schedule: Q01DX009 (ip), vehicle: saline 108 % of control

O=C1C=CN(C2OC(CO)C(O)C2O)C(=O)C1 (centres undefined)
inactive: [1] 104 % of control | [2] 104 % of control | dose: 50.0 mg/kg/injection, schedule: Q01DX009 (ip), vehicle: saline sonified 100 % of control | [3] 119 % of control | dose: 100.0 mg/kg/injection, schedule: Q01DX009 (ip), vehicle: saline sonified 86 % of control | [4] 118 % of control | dose: 200.0 mg/kg/injection, schedule: Q01DX009 (ip), vehicle: saline sonified 89 % of control

O=C(/C=C/c1ccncc1)c1ccccc1
inactive: dose: 12.5 mg/kg/injection, schedule: Q04DX003 (ip), vehicle: Klucel (hydroxypropylcellulose) (HPC) 93 % of control | dose: 25.0 mg/kg/injection, schedule: Q04DX003 (ip), vehicle: Klucel (hydroxypropylcellulose) (HPC) 110 % of control | dose: 50.0 mg/kg/injection, schedule: Q04DX003 (ip), vehicle: Klucel (hydroxypropylcellulose) (HPC) 103 % of control | [10] 99 % of control

N=C(N)c1ccc(/C=C/c2ccc(C(=N)N)cc2)cc1
inactive: dose: 16.0 mg/kg/injection, schedule: Q01DX009 (ip), vehicle: saline with Tween-80 98 % of control | dose: 32.0 mg/kg/injection, schedule: Q01DX009 (ip), vehicle: saline with Tween-80 93 % of control

CC1(C)N=C(N)N=C(N)N1c1cc(Cl)c(Cl)cc1Cl
inactive: [13] 94 % of control | [14] 99 % of control

COc1cc2ccc(CC(=O)NCc3ccccc3)cc2cc1OC
inactive: [15] 122 % of control | dose: 135.0 mg/kg/injection, schedule: Q01DX009 (ip), vehicle: Klucel (hydroxypropylcellulose) (HPC) 123 % of control | dose: 200.0 mg/kg/injection, schedule: Q01DX009 (ip), vehicle: Klucel (hydroxypropylcellulose) (HPC) 110 % of control

Cc1ccc(NC(=O)Nc2cccc(Cl)c2C)cc1C
inactive: [14] 98 % of control | [16] 86 % of control | dose: 100.0 mg/kg/injection, schedule: Q01DX009 (ip), vehicle: Klucel (hydroxypropylcellulose) (HPC) 92 % of control

BrC[P+](CBr)(CBr)CBr
inactive: [7] 100 % of control | [8] 105 % of control | [17] 104 % of control | [15] 89 % of control

CCC(N)CC
inactive: [2] 102 % of control | [3] 117 % of control

COC1=C(O)C(C(O)CO)OC1=O (centres undefined)
inactive: [4] 99 % of control | [5] 110 % of control | dose: 400.0 mg/kg/injection, schedule: Q01DX009 (ip), vehicle: saline 108 % of control

Cc1ccc(S(=O)(=O)N(CCCCN(S(=O)(=O)c2ccc(C)cc2)S(=O)(=O)c2ccc(C)cc2)S(=O)(=O)c2ccc(C)cc2)cc1
inactive: [10] 95 % of control | [12] 112 % of control

CC(C)(C)OC(=O)NC(Cc1ccc(OCc2ccccc2)cc1)C(=O)O (centres undefined)
inactive: [6] 104 % of control | [7] 97 % of control | [8] 96 % of control | [17] 95 % of control | [15] 87 % of control

NC(CCC(=O)NC(CCC(=O)O)C(=O)NC(CCC(=O)O)C(=O)O)C(=O)O (stereo not drawn) (γGlu-Glu-Glu-OH; configuration not given here)
inactive: [3] 92 % of control | [4] 96 % of control | [5] 89 % of control

CCC(C)C(C(=O)OCCN(CC)CC)c1ccccc1 (centres undefined)
inactive: [13] 90 % of control | [14] 96 % of control | [16] 90 % of control and 93 % of control

COC(=O)Nc1cn2cc(C(=O)c3cccs3)ccc2n1
inactive: dose: 1.56 mg/kg/injection, schedule: Q01DX009 (ip), vehicle: Klucel (hydroxypropylcellulose) (HPC) 93 % of control | dose: 3.12 mg/kg/injection, schedule: Q01DX009 (ip), vehicle: Klucel (hydroxypropylcellulose) (HPC) 98 % of control | dose: 6.25 mg/kg/injection, schedule: Q01DX009 (ip), vehicle: Klucel (hydroxypropylcellulose) (HPC) 104 % of control | [13] 113 % of control | [14] 123 % of control

CC1(C)COCN1COC1CCCCC1
inactive: [7] 100 % of control | [8] 105 % of control and 115 % of control | [17] 105 % of control and 119 % of control | dose: 200.0 mg/kg/injection, schedule: Q01DX009 (ip), vehicle: saline with Tween-80 110 % of control

Cc1ncc([N+](=O)[O-])n1CCO
inactive: dose: 18.7 mg/kg/injection, schedule: Q01DX009 (ip), vehicle: Klucel (hydroxypropylcellulose) (HPC) 104 % of control | dose: 37.5 mg/kg/injection, schedule: Q01DX009 (ip), vehicle: Klucel (hydroxypropylcellulose) (HPC) 118 % of control | dose: 75.0 mg/kg/injection, schedule: Q01DX009 (ip), vehicle: Klucel (hydroxypropylcellulose) (HPC) 115 % of control | dose: 150.0 mg/kg/injection, schedule: Q01DX009 (ip), vehicle: Klucel (hydroxypropylcellulose) (HPC) 102 % of control | dose: 300.0 mg/kg/injection, schedule: Q01DX009 (ip), vehicle: Klucel (hydroxypropylcellulose) (HPC) 113 % of control | dose: 600.0 mg/kg/injection, schedule: Q01DX009 (ip), vehicle: Klucel (hydroxypropylcellulose) (HPC) 106 % of control

N#[N+]c1c(O)cc(S(=O)(=O)O)c2ccccc12
inactive: dose: 100.0 mg/kg/injection, schedule: Q04DX003 (ip), vehicle: saline 95 % of control | dose: 200.0 mg/kg/injection, schedule: Q04DX003 (ip), vehicle: saline 93 % of control | [9] 90 % of control

CCCc1c(C)[nH]c2ccccc12
inactive: [10] 94 % of control | [11] 100 % of control | [12] 88 % of control

Nc1ccc(-c2ccc(N)c(Cl)c2)cc1Cl
inactive: [10] 111 % of control | [11] 108 % of control | [12] 100 % of control

Source: PubChem BioAssay AID192 (DTP/NCI, 2004)
